Measured values: publication PMC10886515, “Discovery of A Novel Series of Quinazoline–Thiazole Hybrids as Potential Antiproliferative and Anti-Angiogenic Agents” (Biomolecules, 2024)
Where two headings read alike, the source gives them in different places.

Experiments:
EA.hy926 cells [1] = test: Alamar Blue cytotoxicity assay on EA.hy926 cells; assay type: cell-based, human; details: for IC50: Homo sapiens, read-out: IC50 EA.hy926; for Selectivity Index SIa: SIa = IC50 BJ/IC50 EA.hy296
Description: (§1) A human endothelial hybrid cell line (EA.hy926) (passage number 10–15), human hepatocellular carcinoma (HepG2) cells (passage number 10–15), and normal foreskin fibroblasts (BJ) (passage number 5–10) were used in the present study. All cell lines were purchased from ATCC (Manassas, United States of America). EA.hy926 cells were maintained in DMEM with high glucose supplemented with 1% sodium pyruvate, while the BJ cells were maintained in DMEM with low glucose concentration. HepG2 cells were cultured in MEM. All media were supplemented with 10% fetal bovine serum (FBS) and 1% penicillin/streptomycin. All cell lines were cultured at 37 °C in an incubator with 5% CO2 supplementation and cellular media were refreshed every other day. Once the cells reached a confluency of 80–90%, they were either subcultured or used in experiments.
(§2) The synthesized compounds’ cytotoxicity was evaluated using the Alamar Blue (AB) assay as previously described. The metabolically active cell-dependent conversion of non-fluorescent resazurin to the highly fluorescent resorufin compound is quantified spectrophotometrically at λexcitation = 530/25; λemission = 590/35, using a Synergy 2 Multi-Mode microplate reader. Briefly, a total of 5 x 10^3 EA.hy926 and BJ cells and 1 x 10^4 HepG2 cells were seeded in 100 µL in 96 well plates. The cells were left to attach overnight. […] At 48 h post-stimulation, the media were removed, and the AB assay was performed. The reported range of concentrations for each compound was obtained by employing the up-and-down method.
(§3) The experiments were conducted in three biological replicates, each one including 6 technical replicates. Cells exposed to culture media with 0.2% DMSO served as negative control (NC) and were used for data normalization (100%). The 50% Inhibitory Concentration (IC50) values were determined based on the dose–response curves obtained by fitting the experimental data with a 4-parameter logistic curve in SigmaPlot 11 software.

HepG2 cells = test: Alamar Blue cytotoxicity assay on HepG2 cells; assay type: cell-based, human; details: for IC50: Homo sapiens, read-out: IC50 HepG2; for Selectivity Index SIb: SIb = IC50 BJ/IC50 HepG2
Description: as §1, §2, §3

BJ cells = test: Alamar Blue cytotoxicity assay on BJ cells; assay type: cell-based; details: Homo sapiens, 48 h exposure, normal foreskin fibroblasts
Description: as §1, §2, §3

[2] = system: chorioallantoic membrane (CAM) of chicken eggs; test: Chorioallantoic egg membrane (CAM) assay; assay type: in vivo; details: for peak number of vascular branching points from day 3, fold lower than control sample: day 3 vs control (0.2% DMSO); for reduction in vascular branching on day 4 compared to day 3: day 4 vs day 3; for reduction in the number of vascular branching points on day 5 compared to day 5 of the control sample: day 5 vs control (0.2% DMSO); for reduction in vascular branching on day 5 compared to day 3: day 5 vs day 3
Description: To assess the anti-angiogenic effects, a biological model represented by the chorioallantoic membrane (CAM) of chicken eggs was employed. […] The experimental procedure involved the following steps: (I) initial cleaning with 70% alcohol solution and incubation of the eggs at a constant humidity (45%) and temperature (37.5 °C) on the first day; (II) on the third day of embryonic development (EDD3), a small hole at the egg tip was created and approximately 5–7 mL of albumen were extracted to facilitate detachment of the chorioallantoic membrane from the inner shell; and (III) on EDD4, a window was created at the egg’s top to visualize the vascular plexus, covering it with adhesive tape, and returning the egg to the incubator until the experiment’s commencement.
The assessment of anti-angiogenic impact began on the sixth day of embryonic development and extended over five days. To achieve this, a silicon ring was applied to the CAM, and 10 μL of the tested compounds was administered daily within the ring. The evaluation of angiogenesis involved daily photographic documentation of the vascular plexus using a Discovery v.8 stereomicroscope, a Zeiss Axio CAM 105 color camera, and ZEN core 3.8 software. […] The quantitative evaluation of vessel numbers branching points and total vessel area was performed using the IKOSA Prism Application CAM assay (v3.1.0).

EA.hy926 cells [3] = test: Wound healing (scratch) assay; assay type: cell-based, human; details: 12 h
Description: EA.hy926 cells were seeded in 12-well plates and incubated for 24 h until confluency was reached. The medium was removed and a scratch in the cell monolayer was manually added with a sterile pipette tip. Subsequently, the cells were gently washed two times with DPBS to remove the detached cells. […] Images were captured at the time of exposure (T0) and 12 h post-exposure (T12). The rate of cell migration was determined by calculating the wound healing percentage (%) according to the formula (AT0 – AT12)/ AT0*100 previously reported. The scratch area at the initial time of exposure (AT0) and after 12 h (AT12), expressed as square pixels (Px^2), were determined using the IKOSA Prisma Application Wound Healing (Scratch) assay (v2.2.0).

[4] = Solubility observed in the cellular media; assay type: physicochemical; details: plasma or biological fluid, read-out: concentrations at which limited solubility in the cellular media was observed
[5] = EA.hy 926, 48 h exposure, Alamar Blue
[6] = HepG2, 48 h exposure, Alamar Blue

Compound | IC50 (EA.hy926 cells [1]; [5]) [µM] | Selectivity Index SIa (EA.hy926 cells [1]) | melting point [°C] | IC50 (HepG2 cells; [6]) [µM] | Selectivity Index SIb (HepG2 cells) | IC50 (BJ cells) [µM] | also measured
COc1cc2ncnc(Oc3ccc(/C=N/Nc4nc(-c5ccc(O)c(C(N)=O)c5)cs4)cc3)c2cc1OC [SA07, (E)-5-(2-(2-(4-((6,7-dimethoxyquinazolin-4-yl)oxy)benzylidene)hydrazineyl)thiazol-4-yl)-2-hydroxy-benzamide] | 5.85 | 4.06 | 246 to 247 | 27.3 | 0.87 | 23.8 | 
COc1cc2ncnc(Oc3ccc(/C=N/Nc4nc(-c5ccc(F)cc5)cs4)cc3)c2cc1OC [SA02, (E)-2-(2-(4-((6,7-dimethoxyquinazolin-4-yl)oxy)benzylidene)hydrazineyl)-4-(4-fluorophenyl)-thiazole] | 0.93 | 2.53 | 242 to 243 | 2.34 | 1.00 | 2.35 | 
COc1cc2ncnc(Oc3ccc(/C=N/Nc4nc(-c5ccc(C(F)(F)F)cc5)cs4)cc3)c2cc1OC [SA04, (E)-2-(2-(4-((6,7-dimethoxyquinazolin-4-yl)oxy)benzylidene)hydrazineyl)-4-(4-(trifluoromethyl)-phenyl)thiazole] | 0.98 | 6.93 | 237 to 238 | 2.72 | 2.50 | 6.79 | peak number of vascular branching points from day 3, fold lower than control sample [2]: 1.3 fold; reduction in vascular branching on day 4 compared to day 3 [2]: 47%; reduction in the number of vascular branching points on day 5 compared to day 5 of the control sample [2]: 67%; reduction in vascular branching on day 5 compared to day 3 [2]: 60%; Wound heal (%) (EA.hy926 cells [3]; 0.25 μM): 63.45%; Wound heal (%) (EA.hy926 cells [3]; 0.5 μM): 46.99%; Wound heal (%) (EA.hy926 cells [3]; 0.75 μM): 46.83%; Wound heal (%) (EA.hy926 cells [3]; 1 μM): 43.87%
COc1cc2ncnc(Oc3ccc(/C=N/Nc4nc(-c5ccc(Cl)cc5)cs4)cc3)c2cc1OC [SA03, (E)-2-(2-(4-((6,7-dimethoxyquinazolin-4-yl)oxy)benzylidene)hydrazineyl)-4-(4-chlorophenyl)-thiazole] | 0.79 | 3.59 | 231 to 232 | 4.24 | 0.67 | 2.84 | fold higher activity compared to sorafenib (EA.hy926 cells [1]; EA.hy926 cells): 8.3 fold
COc1cc2ncnc(Oc3ccc(/C=N/Nc4nc(-c5ccc(C#N)cc5)cs4)cc3)c2cc1OC [SA05, (E)-2-(2-(4-((6,7-dimethoxyquinazolin-4-yl)oxy)benzylidene)hydrazineyl)-4-(4-benzonitrile)thiazole] | 1.4 | 1.91 |  | 1.83 | 1.46 | 2.67 | peak number of vascular branching points from day 3, fold lower than control sample [2]: 1.18 fold; reduction in vascular branching on day 4 compared to day 3 [2]: 16%; reduction in the number of vascular branching points on day 5 compared to day 5 of the control sample [2]: 42%; reduction in vascular branching on day 5 compared to day 3 [2]: 39%; fold higher activity compared to sorafenib (HepG2 cells; HepG2 cells): 3.5 fold; Wound heal (%) (EA.hy926 cells [3]; 0.75 μM): 66.41%; Wound heal (%) (EA.hy926 cells [3]; 1 μM): 62.45%; Wound heal (%) (EA.hy926 cells [3]; 1.25 μM): 61.52%; Wound heal (%) (EA.hy926 cells [3]; 1.5 μM): 54.42%
COc1ccc(-c2csc(N/N=C/c3ccc(Oc4ncnc5cc(OC)c(OC)cc45)cc3)n2)cc1 [SA01, (E)-2-(2-(4-((6,7-dimethoxyquinazolin-4-yl)oxy)-benzylidene)hydrazineyl)-4-(4-methoxyphenyl)-thiazole] | 3.64 | 9.96 | 230 | 31.2 | 1.16 | 36.2 | 
COc1cc2ncnc(Oc3ccc(/C=N/Nc4nc(C)cs4)cc3)c2cc1OC [SA06, (E)-2-(2-(4-((6,7-dimethoxyquinazolin-4-yl)-oxy)-benzylidene-)hydrazineyl)-4-methyl-thiazole] | > 10 |  |  | > 100 |  | > 100 | solubility [4]: > 5 µM
CNC(=O)c1cc(Oc2ccc(NC(=O)Nc3ccc(Cl)c(C(F)(F)F)c3)cc2)ccn1 [Sorafenib, sorafenib, reference compound] |  |  |  |  |  | 13.2 | IC50 (EA.hy926 cells [1]; EA.hy 926, 48 h): 6.62 µM; IC50 (HepG2 cells; HepG2, 48 h): 6.28 µM; Wound heal (%) (EA.hy926 cells [3]; 1.25 μM): 70.54%; Wound heal (%) (EA.hy926 cells [3]; 2.5 μM): 37.99%; Wound heal (%) (EA.hy926 cells [3]; 5 μM): 18.88%
